Assay results from patent US20230093861A1, “RAPAMYCIN ANALOGS AS MTOR INHIBITORS” (Revolution Medicines, Inc., priority 2017, published 2023).

What was measured:
P-4E-BP1 (T37/46) = experiment: Cell based AlphaLISA assay, inhibition of P-4E-BP1 (T37/46) (mTORC1 substrate phosphorylation) in MDA-MB-468 cells; settings: Homo sapiens, MDA-MB-468, 4 h, AlphaLISA, two to four hours at 37° C., read-out: pIC50 for Inhibition of mTORC1 and mTORC2 Substrate Phosphorylation, P-4E-BP1-(T37/46) (converted)
Procedure, shortened: (§1)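 AlphaLISA SureFire Ultra read-out of P-4E-BP1 (T37/46), P-P70S6K (T389) and P-Akt (S473) in MDA-MB-468 cells after compound treatment; cells lysed in kit buffer. Alpha signal read in duplicate; IC50 from normalized concentration-response regression with control-based normalization.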

P-Akt (S473) = experiment: Cell based AlphaLISA assay, inhibition of P-Akt (S473) (mTORC2 substrate phosphorylation) in MDA-MB-468 cells; settings: Homo sapiens, MDA-MB-468, 4 h, AlphaLISA, two to four hours at 37° C., read-out: pIC50 for Inhibition of mTORC1 and mTORC2 Substrate Phosphorylation, p-AKT 1/2/3 -(S473) (converted)
Procedure, shortened: as §1

P-P70S6K (T389) = experiment: Cell based AlphaLISA assay, inhibition of P-P70S6K (T389) (mTORC1 substrate phosphorylation) in MDA-MB-468 cells; settings: Homo sapiens, 4 h, AlphaLISA, two to four hours at 37° C., read-out: pIC50 for Inhibition of mTORC1 and mTORC2 Substrate Phosphorylation, P-P70S6K-(T389) (converted)
Procedure, shortened: as §1

| Compound | IC50 (P-4E-BP1 (T37/46)) | IC50 (P-Akt (S473)) | IC50 (P-P70S6K (T389)) |
| --- | --- | --- | --- |
| CO[C@H]1C[C@@H]2CC[C@@H](C)[C@@](O)(O2)C(=O)C(=O)N2CCCC[C@H]2C(=O)O[C@H]([C@H](C)C[C@@H]2CC[C@H](n3cc(-c4cnc(N5CCN(c6ncc(C(=O)NCCOCCOCCOCCOCCOCCC(=O)NCCCCn7nc(-c8cc9cc(O)ccc9[nH]8)c8c(N)ncnc87)cn6)CC5)nc4)nn3)[C@H](OC)C2)CC(=O)[C@H](C)/C=C(\C)[C@@H](O)[C@@H](OC)C(=O)[C@H](C)C[C@H](C)/C=C/C=C/C=C/1C [Example 119] | > 1000 nM | > 1000 nM | < 1 nM |
| CO[C@H]1C[C@@H]2CC[C@@H](C)[C@@](O)(O2)C(=O)C(=O)N2CCCC[C@H]2C(=O)O[C@H]([C@H](C)C[C@@H]2CC[C@H](n3cc(COC(=O)NCCOCCOCCOCCC(=O)NCCOCCOCCC(=O)NCCCCn4nc(-c5ccc6oc(N)nc6c5)c5c(N)ncnc54)nn3)[C@H](OC)C2)CC(=O)[C@H](C)/C=C(\C)[C@@H](O)[C@@H](OC)C(=O)[C@H](C)C[C@H](C)/C=C/C=C/C=C/1C [Example 120] | 3.16 to 31.6 nM | 31.6 to 1000 nM | 1 to 10 nM |
| CO[C@H]1C[C@@H]2CC[C@@H](C)[C@@](O)(O2)C(=O)C(=O)N2CCCC[C@H]2C(=O)O[C@H]([C@H](C)C[C@@H]2CC[C@H](n3cc(COC(=O)NCCOCCOCCOCCC(=O)NCCOCCOCCC(=O)NCCCCn4nc(-c5cc6cc(O)ccc6[nH]5)c5c(N)ncnc54)nn3)[C@H](OC)C2)CC(=O)[C@H](C)/C=C(\C)[C@@H](O)[C@@H](OC)C(=O)[C@H](C)C[C@H](C)/C=C/C=C/C=C/1C [Example 121] | 31.6 to 1000 nM | > 1000 nM | 1 to 10 nM |
| CO[C@H]1C[C@@H]2CC[C@@H](C)[C@@](O)(O2)C(=O)C(=O)N2CCCC[C@H]2C(=O)O[C@H]([C@H](C)C[C@@H]2CC[C@H](n3cc(COC(=O)NCCOCCOCCOCCC(=O)NCCOCCOCCOCCC(=O)NCCCCn4nc(-c5ccc6oc(N)nc6c5)c5c(N)ncnc54)nn3)[C@H](OC)C2)CC(=O)[C@H](C)/C=C(\C)[C@@H](O)[C@@H](OC)C(=O)[C@H](C)C[C@H](C)/C=C/C=C/C=C/1C [Example 122] | 3.16 to 31.6 nM | 3.16 to 31.6 nM | 1 to 10 nM |
| CO[C@H]1C[C@@H]2CC[C@@H](C)[C@@](O)(O2)C(=O)C(=O)N2CCCC[C@H]2C(=O)O[C@H]([C@H](C)C[C@@H]2CC[C@H](n3cc(COC(=O)NCCOCCOCCOCCC(=O)NCCOCCOCCOCCC(=O)NCCCCn4nc(-c5cc6cc(O)ccc6[nH]5)c5c(N)ncnc54)nn3)[C@H](OC)C2)CC(=O)[C@H](C)/C=C(\C)[C@@H](O)[C@@H](OC)C(=O)[C@H](C)C[C@H](C)/C=C/C=C/C=C/1C [Example 123] | 3.16 to 31.6 nM | 31.6 to 1000 nM | 1 to 10 nM |
| CO[C@H]1C[C@@H]2CC[C@@H](C)[C@@](O)(O2)C(=O)C(=O)N2CCCC[C@H]2C(=O)O[C@H]([C@H](C)C[C@@H]2CC[C@H](n3cc(COC(=O)NCCOCCOCCOCCC(=O)NCCOCCOCCOCCOCCC(=O)NCCCCn4nc(-c5ccc6oc(N)nc6c5)c5c(N)ncnc54)nn3)[C@H](OC)C2)CC(=O)[C@H](C)/C=C(\C)[C@@H](O)[C@@H](OC)C(=O)[C@H](C)C[C@H](C)/C=C/C=C/C=C/1C [Example 124] | 3.16 to 31.6 nM | 3.16 to 31.6 nM | 1 to 10 nM |
| CO[C@H]1C[C@@H]2CC[C@@H](C)[C@@](O)(O2)C(=O)C(=O)N2CCCC[C@H]2C(=O)O[C@H]([C@H](C)C[C@@H]2CC[C@H](n3cc(COC(=O)NCCOCCOCCOCCOCCC(=O)NCCOCCOCCOCCOCCC(=O)NCCCCn4nc(-c5ccc6oc(N)nc6c5)c5c(N)ncnc54)nn3)[C@H](OC)C2)CC(=O)[C@H](C)/C=C(\C)[C@@H](O)[C@@H](OC)C(=O)[C@H](C)C[C@H](C)/C=C/C=C/C=C/1C [Example 125] | 3.16 to 31.6 nM | 3.16 to 31.6 nM | 1 to 10 nM |
| CO[C@H]1C[C@@H]2CC[C@@H](C)[C@@](O)(O2)C(=O)C(=O)N2CCCC[C@H]2C(=O)O[C@H]([C@H](C)C[C@@H]2CC[C@H](n3cc(COC(=O)NCCOCCOCCOCCC(=O)NCCOCCOCCOCCOCCC(=O)NCCCCn4nc(-c5cc6cc(O)ccc6[nH]5)c5c(N)ncnc54)nn3)[C@H](OC)C2)CC(=O)[C@H](C)/C=C(\C)[C@@H](O)[C@@H](OC)C(=O)[C@H](C)C[C@H](C)/C=C/C=C/C=C/1C [Example 126] | 3.16 to 31.6 nM | 31.6 to 1000 nM | 1 to 10 nM |
| CO[C@H]1C[C@@H]2CC[C@@H](C)[C@@](O)(O2)C(=O)C(=O)N2CCCC[C@H]2C(=O)O[C@H]([C@H](C)C[C@@H]2CC[C@H](n3cc(COC(=O)NCCOCCOCCOCCOCCC(=O)NCCOCCOCCOCCOCCC(=O)NCCCCn4nc(-c5cc6cc(O)ccc6[nH]5)c5c(N)ncnc54)nn3)[C@H](OC)C2)CC(=O)[C@H](C)/C=C(\C)[C@@H](O)[C@@H](OC)C(=O)[C@H](C)C[C@H](C)/C=C/C=C/C=C/1C [Example 127] | 3.16 to 31.6 nM | 31.6 to 1000 nM | 1 to 10 nM |
| CO[C@H]1C[C@@H]2CC[C@@H](C)[C@@](O)(O2)C(=O)C(=O)N2CCCC[C@H]2C(=O)O[C@H]([C@H](C)C[C@@H]2CC[C@H](n3cc(CCCC(=O)NCCOCCOCCOCCC(=O)NCCOCCOCCC(=O)NCCCCn4nc(-c5ccc6oc(N)nc6c5)c5c(N)ncnc54)nn3)[C@H](OC)C2)CC(=O)[C@H](C)/C=C(\C)[C@@H](O)[C@@H](OC)C(=O)[C@H](C)C[C@H](C)/C=C/C=C/C=C/1C [Example 128] | 3.16 to 31.6 nM | 31.6 to 1000 nM | 1 to 10 nM |
| CO[C@H]1C[C@@H]2CC[C@@H](C)[C@@](O)(O2)C(=O)C(=O)N2CCCC[C@H]2C(=O)O[C@H]([C@H](C)C[C@@H]2CC[C@H](n3cc(CCCC(=O)NCCOCCOCCOCCC(=O)NCCOCCOCCC(=O)NCCCCn4nc(-c5cc6cc(O)ccc6[nH]5)c5c(N)ncnc54)nn3)[C@H](OC)C2)CC(=O)[C@H](C)/C=C(\C)[C@@H](O)[C@@H](OC)C(=O)[C@H](C)C[C@H](C)/C=C/C=C/C=C/1C [Example 129] | 31.6 to 1000 nM | > 1000 nM | 1 to 10 nM |
| CO[C@H]1C[C@@H]2CC[C@@H](C)[C@@](O)(O2)C(=O)C(=O)N2CCCC[C@H]2C(=O)O[C@H]([C@H](C)C[C@@H]2CC[C@H](n3cc(CCCC(=O)NCCOCCOCCOCCC(=O)NCCOCCOCCOCCC(=O)NCCCCn4nc(-c5ccc6oc(N)nc6c5)c5c(N)ncnc54)nn3)[C@H](OC)C2)CC(=O)[C@H](C)/C=C(\C)[C@@H](O)[C@@H](OC)C(=O)[C@H](C)C[C@H](C)/C=C/C=C/C=C/1C [Example 130] | 3.16 to 31.6 nM | 3.16 to 31.6 nM | 1 to 10 nM |
| CO[C@H]1C[C@@H]2CC[C@@H](C)[C@@](O)(O2)C(=O)C(=O)N2CCCC[C@H]2C(=O)O[C@H]([C@H](C)C[C@@H]2CC[C@H](n3cc(CCCC(=O)NCCOCCOCCOCCC(=O)NCCOCCOCCOCCC(=O)NCCCCn4nc(-c5cc6cc(O)ccc6[nH]5)c5c(N)ncnc54)nn3)[C@H](OC)C2)CC(=O)[C@H](C)/C=C(\C)[C@@H](O)[C@@H](OC)C(=O)[C@H](C)C[C@H](C)/C=C/C=C/C=C/1C [Example 131] | 31.6 to 1000 nM | 31.6 to 1000 nM | 1 to 10 nM |
| CO[C@H]1C[C@@H]2CC[C@@H](C)[C@@](O)(O2)C(=O)C(=O)N2CCCC[C@H]2C(=O)O[C@H]([C@H](C)C[C@@H]2CC[C@H](n3cc(CCCC(=O)NCCOCCOCCOCCC(=O)NCCOCCOCCOCCOCCC(=O)NCCCCn4nc(-c5ccc6oc(N)nc6c5)c5c(N)ncnc54)nn3)[C@H](OC)C2)CC(=O)[C@H](C)/C=C(\C)[C@@H](O)[C@@H](OC)C(=O)[C@H](C)C[C@H](C)/C=C/C=C/C=C/1C [Example 132] | 3.16 to 31.6 nM | 31.6 to 1000 nM | 1 to 10 nM |
| CO[C@H]1C[C@@H]2CC[C@@H](C)[C@@](O)(O2)C(=O)C(=O)N2CCCC[C@H]2C(=O)O[C@H]([C@H](C)C[C@@H]2CC[C@H](n3cc(CCCC(=O)NCCOCCOCCOCCC(=O)NCCOCCOCCOCCOCCC(=O)NCCCCn4nc(-c5cc6cc(O)ccc6[nH]5)c5c(N)ncnc54)nn3)[C@H](OC)C2)CC(=O)[C@H](C)/C=C(\C)[C@@H](O)[C@@H](OC)C(=O)[C@H](C)C[C@H](C)/C=C/C=C/C=C/1C [Example 133] | 3.16 to 31.6 nM | 31.6 to 1000 nM | 1 to 10 nM |
| CO[C@H]1C[C@@H]2CC[C@@H](C)[C@@](O)(O2)C(=O)C(=O)N2CCCC[C@H]2C(=O)O[C@H]([C@H](C)C[C@@H]2CC[C@H](n3cc(CCCC(=O)NCCOCCOCCOCCOCCC(=O)NCCOCCOCCOCCOCCC(=O)NCCCCn4nc(-c5ccc6oc(N)nc6c5)c5c(N)ncnc54)nn3)[C@H](OC)C2)CC(=O)[C@H](C)/C=C(\C)[C@@H](O)[C@@H](OC)C(=O)[C@H](C)C[C@H](C)/C=C/C=C/C=C/1C [Example 134] | 3.16 to 31.6 nM | 3.16 to 31.6 nM | 1 to 10 nM |
| CO[C@H]1C[C@@H]2CC[C@@H](C)[C@@](O)(O2)C(=O)C(=O)N2CCCC[C@H]2C(=O)O[C@H]([C@H](C)C[C@@H]2CC[C@H](n3cc(CCCC(=O)NCCOCCOCCOCCOCCC(=O)NCCOCCOCCOCCOCCC(=O)NCCCCn4nc(-c5cc6cc(O)ccc6[nH]5)c5c(N)ncnc54)nn3)[C@H](OC)C2)CC(=O)[C@H](C)/C=C(\C)[C@@H](O)[C@@H](OC)C(=O)[C@H](C)C[C@H](C)/C=C/C=C/C=C/1C [Example 135] | 3.16 to 31.6 nM | 31.6 to 1000 nM | 1 to 10 nM |
